Assay results reported in patent US20220332700A1, “NOVEL APOPTOSIS SIGNAL-REGULATING KINASE 1 INHIBITORS” (MANKIND PHARMA LTD, priority 2019, published 2022).

Columns and labels:
[1] = target: T1, Human ASK1 (Homo sapiens, UniProt Q99683); assay: ASK1 Cell Based Assay (phospho p38 read out in hASK1 transfected HEK293T-AP1 cells); details: HEK293T-AP1 cells, 1 mM hydrogen peroxide, phospho p38; read-out: Cell Based Assay IC50
T1 construct: expressed in transfected cells; host or cells: HEK293T-AP1
T1 sequence (Q99683 1-1374): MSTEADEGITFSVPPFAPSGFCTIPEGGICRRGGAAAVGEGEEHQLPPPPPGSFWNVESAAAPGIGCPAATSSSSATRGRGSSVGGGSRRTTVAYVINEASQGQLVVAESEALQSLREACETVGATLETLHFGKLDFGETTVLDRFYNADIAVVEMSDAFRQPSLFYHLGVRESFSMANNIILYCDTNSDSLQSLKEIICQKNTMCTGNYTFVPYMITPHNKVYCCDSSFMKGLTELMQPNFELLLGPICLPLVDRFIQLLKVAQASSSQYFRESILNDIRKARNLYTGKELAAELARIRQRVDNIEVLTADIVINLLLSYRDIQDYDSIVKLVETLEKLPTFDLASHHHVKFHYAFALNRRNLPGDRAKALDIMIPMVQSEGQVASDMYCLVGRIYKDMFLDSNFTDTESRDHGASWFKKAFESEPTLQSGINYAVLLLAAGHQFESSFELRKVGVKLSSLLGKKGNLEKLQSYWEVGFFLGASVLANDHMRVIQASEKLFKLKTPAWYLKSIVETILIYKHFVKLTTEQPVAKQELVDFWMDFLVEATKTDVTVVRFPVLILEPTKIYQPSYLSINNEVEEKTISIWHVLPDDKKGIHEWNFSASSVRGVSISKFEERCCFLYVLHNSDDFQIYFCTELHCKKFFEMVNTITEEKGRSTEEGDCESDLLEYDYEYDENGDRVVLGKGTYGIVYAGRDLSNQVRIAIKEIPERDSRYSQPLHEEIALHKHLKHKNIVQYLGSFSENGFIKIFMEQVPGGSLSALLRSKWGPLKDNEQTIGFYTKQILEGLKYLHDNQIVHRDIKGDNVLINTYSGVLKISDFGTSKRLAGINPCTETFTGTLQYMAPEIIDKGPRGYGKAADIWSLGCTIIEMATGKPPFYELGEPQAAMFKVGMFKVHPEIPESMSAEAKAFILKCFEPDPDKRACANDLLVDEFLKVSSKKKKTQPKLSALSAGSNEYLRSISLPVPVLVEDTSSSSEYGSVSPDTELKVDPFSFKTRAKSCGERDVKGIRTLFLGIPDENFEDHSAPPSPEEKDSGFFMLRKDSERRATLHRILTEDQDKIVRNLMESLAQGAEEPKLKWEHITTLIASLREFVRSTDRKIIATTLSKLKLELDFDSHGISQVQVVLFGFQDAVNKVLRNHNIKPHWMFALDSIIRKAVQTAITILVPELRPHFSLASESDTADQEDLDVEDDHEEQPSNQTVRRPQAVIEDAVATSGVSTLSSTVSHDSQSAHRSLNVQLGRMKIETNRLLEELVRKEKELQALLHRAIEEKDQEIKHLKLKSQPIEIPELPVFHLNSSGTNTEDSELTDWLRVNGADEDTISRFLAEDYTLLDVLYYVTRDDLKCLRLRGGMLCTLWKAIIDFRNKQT
How it was run: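 HEK293T-AP1 cells transfected with hASK1, after 24 h treated with compounds for 24 h (0.2% DMSO), then stimulated with 1 mM H2O2 for 1 h with compounds present.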

[2] = target: T2, recombinant ASK1 (Homo sapiens, UniProt Q99683); assay: ASK1 Biochemical Assay (HTRF KinEASE-STK S3); details: ATP 100 μM; read-out: Biochemical Assay IC50
T2 construct: purchased Carna Biosciences
How it was run: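 Recombinant ASK1 (5 ng) preincubated with compound 1 h at 23 °C in MOPS pH 7 buffer with Mg-acetate, DTT, NP40, glycerol, BSA and 1% DMSO. Inhibition calculated against vehicle after substrate-blank subtraction.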

| Structure (SMILES) | IC50 [1] [nM] | IC50 [2] [nM] |
| --- | --- | --- |
| CC(C)n1cnnc1-c1cccc(N2CCN(c3ccc(N4CC(O)C4)cc3)C2=O)n1 [Example 1090, 1-(4-(3-hydroxyazetidin-1-yl)phenyl)-3-(6-(4-isopropyl-4H-1,2,4-triazol-3-yl)pyridin-2-yl)imidazolidin-2-one] | > 1000 | < 100 |
| CC(C)n1cnnc1-c1cccc(N2CCN(c3ccc(N4CCC(C#N)C4)cc3)C2=O)n1 (stereo not shown) [Example 1091, 1-(4-(3-(6-(4-isopropyl-4H-1,2,4-triazol-3-yl)pyridin-2-yl)-2-oxoimidazolidin-1-yl)phenyl)pyrrolidine-3-carbonitrile] | > 1000 | < 100 |
| CC(C)n1cnnc1-c1cccc(N2CCN(c3ccc(N4CCN(C)CC4)cc3)C2=O)n1 [Example 1092, 1-(6-(4-isopropyl-4H-1,2,4-triazol-3-yl)pyridin-2-yl)-3-(4-(4-methylpiperazin-1-yl)phenyl)imidazolidin-2-one] | > 1000 | < 100 |
| CC(C)n1cnnc1-c1cccc(N2CCN(c3ccc(N4CC(C(N)=O)C4)cc3)C2=O)n1 [Example 1093, 1-(4-(3-(6-(4-isopropyl-4H-1,2,4-triazol-3-yl)pyridin-2-yl)-2-oxoimidazolidin-1-yl)phenyl)azetidine-3-carboxamide] | > 100 | < 100 |
| CC(C)n1cnnc1-c1cccc(N2CCN(c3ccc(N4CC(NC5CC5)C4)cc3)C2=O)n1 [Example 1094, 1-(4-(3-(cyclopropylamino)azetidin-1-yl)phenyl)-3-(6-(4-isopropyl-4H-1,2,4-triazol-3-yl)pyridin-2-yl)imidazolidin-2-one] | > 1000 | < 100 |
| CC(C)n1cnnc1-c1cccc(N2CCN(c3ccc(C(=O)N4CC(C#N)C4)cc3)C2=O)n1 [Example 1095, 1-(4-(3-(6-(4-isopropyl-4H-1,2,4-triazol-3-yl)pyridin-2-yl)-2-oxoimidazolidin-1-yl)benzoyl)azetidine-3-carbonitrile] | > 1000 | < 100 |
| CC(C)n1cnnc1-c1cccc(N2CCN(c3ccc(N4CC(F)C4)cc3)C2=O)n1 [Example 1096, 1-(4-(3-fluoroazetidin-1-yl)phenyl)-3-(6-(4-isopropyl-4H-1,2,4-triazol-3-yl)pyridin-2-yl)imidazolidin-2-one] | > 100 | < 100 |
| CC(C)n1cnnc1-c1cccc(N2CCN(c3ccc(C(C#N)N4CCOCC4)cc3)C2=O)n1 (stereo not shown) [Example 1098, 2-(4-(3-(6-(4-isopropyl-4H-1,2,4-triazol-3-yl)pyridin-2-yl)-2-oxoimidazolidin-1-yl)phenyl)-2-morpholinoacetonitrile] | > 1000 | < 100 |
| CC(C)n1cnnc1-c1cccc(N2CCN(c3ccc(N4CCOCC4)nc3)C2=O)n1 [Example 1101, 1-(6-(4-isopropyl-4H-1,2,4-triazol-3-yl)pyridin-2-yl)-3-(6-morpholinopyridin-3-yl)imidazolidin-2-one] | 190 | < 50 |
| CC(C)n1cnnc1-c1cccc(N2CCN(c3cnc(N4CCOCC4)nc3)C2=O)n1 [Example 1103, 1-(6-(4-isopropyl-4H-1,2,4-triazol-3-yl)pyridin-2-yl)-3-(2-morpholinopyrimidin-5-yl)imidazolidin-2-one] | > 100 | < 100 |
| CC(C)n1cnnc1-c1cccc(N2CCN(c3ccc(-n4ccnc4)nc3)C2=O)n1 [Example 1104, 1-(6-(1H-imidazol-1-yl)pyridin-3-yl)-3-(6-(4-isopropyl-4H-1,2,4-triazol-3-yl)pyridin-2-yl)imidazolidin-2-one] | > 100 | < 100 |
| CC(C)n1cnnc1-c1cccc(N2CCN(c3ccc(N(C)C)nc3)C2=O)n1 [Example 1105, 1-(6-(dimethylamino)pyridin-3-yl)-3-(6-(4-isopropyl-4H-1,2,4-triazol-3-yl)pyridin-2-yl)imidazolidin-2-one] | > 100 | < 100 |
| CNC(=O)c1ccc(N2CCN(c3cccc(-c4nncn4C(C)C)n3)C2=O)cn1 [Example 1106, 5-(3-(6-(4-isopropyl-4H-1,2,4-triazol-3-yl)pyridin-2-yl)-2-oxoimidazolidin-1-yl)-N-methylpyridine-2-carboxamide] | > 1000 | < 100 |
| CC(C)n1cnnc1-c1cccc(N2CCN(c3ccc(N4CC(C#N)C4)nc3)C2=O)n1 [Example 1107, 1-(5-(3-(6-(4-isopropyl-4H-1,2,4-triazol-3-yl)pyridin-2-yl)-2-oxoimidazolidin-1-yl)pyridin-2-yl)azetidine-3-carbonitrile] | < 100 | < 50 |
| CC(C)n1cnnc1-c1cccc(N2CCN(c3cccc(N4CCOCC4)c3)C2=O)n1 [Example 1108, 1-(6-(4-isopropyl-4H-1,2,4-triazol-3-yl)pyridin-2-yl)-3-(3-morpholinophenyl)imidazolidin-2-one] | > 1000 | > 100 |
| CC(C)n1cnnc1-c1cccc(N2CCN(c3ccc(C(=O)NC4CC4)nc3)C2=O)n1 [Example 1109, N-cyclopropyl-5-(3-(6-(4-isopropyl-4H-1,2,4-triazol-3-yl)pyridin-2-yl)-2-oxoimidazolidin-1-yl)pyridine-2-carboxamide] | > 1000 | < 100 |
| CC(C)NC(=O)c1ccc(N2CCN(c3cccc(-c4nncn4C(C)C)n3)C2=O)cn1 [Example 1110, N-isopropyl-5-(3-(6-(4-isopropyl-4H-1,2,4-triazol-3-yl)pyridin-2-yl)-2-oxoimidazolidin-1-yl)pyridine-2-carboxamide] | > 1000 | < 100 |
| CC(C)n1cnnc1-c1cccc(N2CCN(Cc3ccc(N4CCOCC4)cc3)C2=O)n1 [Example 1112, 1-(4-morpholinobenzyl)-3-(6-(4-isopropyl-4H-1,2,4-triazol-3-yl)pyridin-2-yl)imidazolidin-2-one] | > 1000 | < 100 |
| CC(C)n1cnnc1-c1cccc(N2CCN(c3ccc(C(C#N)N4CCOCC4)nc3)C2=O)n1 (stereo not shown) [Example 1113, 2-(5-(3-(6-(4-isopropyl-4H-1,2,4-triazol-3-yl)pyridin-2-yl)-2-oxoimidazolidin-1-yl)pyridin-2-yl)-2-morpholinoacetonitrile] | > 1000 | < 100 |
| CC(c1ccc(N2CCN(c3cccc(-c4nncn4C(C)C)n3)C2=O)cc1)N1CCOCC1 (stereo not shown) [Example 1114, 1-(6-(4-isopropyl-4H-1,2,4-triazol-3-yl)pyridin-2-yl)-3-(4-(1-morpholinoethyl)phenyl)imidazolidin-2-one] | > 1000 | < 10 |
| CC(C)n1cnnc1-c1cccc(N2CCN(c3ccc(N4CC(C(N)=O)C4)nc3)C2=O)n1 [Example 1115, 1-(5-(3-(6-(4-isopropyl-4H-1,2,4-triazol-3-yl)pyridin-2-yl)-2-oxoimidazolidin-1-yl)pyridin-2-yl)azetidine-3-carboxamide] | > 1000 | < 100 |
| CNC(=O)C1CCN(c2ccc(N3CCN(c4cccc(-c5nncn5C(C)C)n4)C3=O)cn2)CC1 [Example 1116, 1-(5-(3-(6-(4-isopropyl-4H-1,2,4-triazol-3-yl)pyridin-2-yl)-2-oxoimidazolidin-1-yl)pyridin-2-yl)-N-methylpiperidine-4-carboxamide] | < 100 | < 50 |
| COCCCNc1ccc(N2CCN(c3cccc(-c4nncn4C(C)C)n3)C2=O)cn1 [Example 1118, 1-(6-(3-methoxypropylamino)pyridin-3-yl)-3-(6-(4-isopropyl-4H-1,2,4-triazol-3-yl)pyridin-2-yl)imidazolidin-2-one] | > 1000 | < 100 |
